Data: ChEMBL document CHEMBL1146039, “Synthesis and antitumor activity of two natural N-acetylglucosamine-bearing triterpenoid saponins: lotoidoside D and E” (Bioorg Med Chem Lett, 2006)

What was measured:
[1] = tested on: HeLa; assay: Antitumor activity against HeLa cell line by MTT assay; assay type: functional, cell-based; conditions: Homo sapiens
[2] = tested on: HeLa; assay: Antitumor activity against HeLa cell line at 10 uM by MTT assay; assay type: functional; conditions: Homo sapiens
[3] = tested on: HeLa; assay: Antitumor activity against HeLa cell line at 1 uM by MTT assay; assay type: functional; conditions: Homo sapiens
[4] = tested on: HeLa; assay: Antitumor activity against HeLa cell line at 100 nM by MTT assay; assay type: functional; conditions: Homo sapiens
[5] = tested on: HeLa; assay: Antitumor activity against HeLa cell line at 10 nM by MTT assay; assay type: functional; conditions: Homo sapiens
[6] = tested on: WEHI-164; assay: Antitumor activity against WEHI 164 cell; assay type: functional, cell-based; conditions: Mus musculus

SMILES	IC50 [1] [nM]	inhibition at 10 µM [2] [%]	inhibition at 1 µM [3] [%]	inhibition at 0.1 µM [4] [%]	inhibition at 0.01 µM [5] [%]	IC50 [6] [nM]
CC(=O)N[C@H]1[C@H](O[C@H]2CC[C@]3(C)[C@H]4CC=C5[C@@H]6CC(C)(C)CC[C@]6(C(=O)O)CC[C@@]5(C)[C@]4(C)CC[C@H]3C2(C)C)O[C@H](CO)[C@H](O[C@@H]2O[C@H](CO)[C@@H](O)[C@H](O)[C@H]2O)[C@@H]1O[C@@H]1O[C@H](CO)[C@H](O)[C@H](O)[C@H]1O [LOTOIDOSIDE D]	2740	56.4	35.3	32.8	34.4	360
CC(=O)N[C@H]1[C@H](O[C@H]2CC[C@]3(C)[C@H]4CC=C5[C@@H]6CC(C)(C)CC[C@]6(C(=O)O)CC[C@@]5(C)[C@]4(C)CC[C@H]3C2(C)C)O[C@H](CO)[C@@H](O)[C@@H]1O[C@@H]1O[C@H](CO)[C@H](O)[C@H](O)[C@H]1O [LOTOIDOSIDE E]	> 10000	42	10	1.71	0.79	30
